Reference: PMC5905287, “Synthesis and in vitro biochemical evaluation of oxime bond-linked daunorubicin–GnRH-III conjugates developed for targeted drug delivery” (Beilstein Journal of Organic Chemistry, 2018)
Read-outs that look alike come from different tables or passages of the source. Non-standard residues stand in square brackets, D forms with d. Residues, ends and D or L forms follow the SMILES beside them. *: point of attachment. Daunorubicin(13-NOCH2CO) = COc1cccc2c1C(=O)c1c(O)c3c(c(O)c1C2=O)C[C@@](O)(C(C)=NOCC(=O)*)C[C@@H]3O[C@H]1C[C@H](N)[C@H](O)[C@H](C)O1; pGlu = O=C1CC[C@@H](C(=O)O)N1; Butyryl = CCCC(=O)*

Assays:
[1] = system: MCF-7 human breast cancer cell line; experiment: In vitro cytostatic effect, alamarBlue assay, MCF-7; format: cell-based
Excerpt: (§1) Cell lines often function as the first model system of choice to study biological processes or to test the efficiency of drugs or drug conjugates and their cytotoxic effects. Immortal cell lines offer various benefits, for instance they are easy to handle, cost-effective and provide consistent sample and reproducible results. Nevertheless, cell lines also present the disadvantage that after a period of continuous growth, cell characteristics can change and dedifferentiate in culture. The serial passaging can cause genotypic and phenotypic variations and the state of confluency can also affect gene expression pattern in some cell lines. Due to this, the usage of internal standards during the evaluation of new potential candidates might be necessary to ensure comparability with previous results. The cytostatic effect of the novel GnRH-III bioconjugates was determined on HT-29 human colon cancer and MCF-7 human breast cancer cell lines by alamarBlue® assay. For a better comparison, the well-studied bioconjugates GnRH-III–[^8Lys(Dau=Aoa)] (K1) and GnRH-III–[^4Lys(Bu), ^8Lys(Dau=Aoa)] (K2) were used as positive controls and internal standards. The corresponding IC50 values were calculated by using nonlinear regression (sigmoidal dose response) (Figure 3, Table 2). Unfortunately, the D-Trp containing compounds 3 and 6 started to precipitate in both cell culture media at higher concentrations limiting the concentration down to a maximum of 10 µM. This effect could not be prevented by using DMSO instead of ddH2O for the preparation of the stock solutions. Unfortunately, the lower concentration range with a maximum of 10 µM was not sufficient to achieve the dose-response. […] Nevertheless, the replacement of ^6Asp by D-Asp, D-Glu or D-Trp led to a decreased cytostatic effect on the estimated cancer cell lines.
(§2) MCF-7 human breast adenocarcinoma cells were cultured in Dulbecco’s Modified Eagle Medium (DMEM, Lonza, Basel, Switzerland), supplemented with 10% (v/v) fetal bovine serum (FBS, Lonza), L-glutamine (2 mM, Lonza), non-essential amino acids (NEAA, Sigma-Aldrich Kft), sodium pyruvate (1 mM, Lonza) and penicillin-streptomycine (Lonza). […]
(§3) Cells were seeded to 96-well plates (Sarstedt, Nümbrecht, Germany, 5 × 10^3 cells/well) one day prior to the treatment in complete cell medium. […] Fluorescence was detected using Synergy H4 multi-mode microplate reader (BioTek, Winooski, VT, USA), excitation and emission wavelengths were set to 570 and 620 nm, respectively. Cytostasis was measured using 4 parallels, each experiment was repeated twice. Cytostatic effect (and IC50 values) were calculated by using nonlinear regression (sigmoidal dose response) with Origin Pro8 (OriginLab Corp., Northampton, MA, USA.).

[2] = system: HT-29 human colon cancer cell line; experiment: In vitro cytostatic effect, alamarBlue assay, HT-29; format: cell-based
Excerpt: as §1, §2, §3

Compound	IC50 ([1]; 24 h) [µM]	IC50 ([2]; 24 h) [µM]	IC50 ([1]; 24 h treatment, then 48 h in complete medium, alamarBlue, mean ± SE, read-out: MCF-7 IC50) [µM]	IC50 ([2]; 24 h treatment, then 48 h in complete medium, alamarBlue, mean ± SE, read-out: HT-29 IC50) [µM]
COc1cccc2c1C(=O)c1c(O)c3c(c(O)c1C2=O)C[C@@](O)(C(C)=NOCC(=O)NCCCC[C@H](NC(=O)[C@H](Cc1c[nH]c2ccccc12)NC(=O)[C@@H](CCC(=O)O)NC(=O)[C@H](Cc1c[nH]cn1)NC(=O)[C@H](CO)NC(=O)[C@H](Cc1c[nH]c2ccccc12)NC(=O)[C@H](Cc1c[nH]cn1)NC(=O)[C@@H]1CCC(=O)N1)C(=O)N1CCC[C@H]1C(=O)NCC(N)=O)C[C@@H]3O[C@H]1C[C@H](N)[C@H](O)[C@H](C)O1 [compound 2, [6D-Glu, 8Lys(Dau=Aoa)]] ([pGlu]HWSH[dE]WK(Daunorubicin(13-NOCH2CO))PG-NH2)	6.8 ± 1	10.1 ± 1.4	–	–
CCCC(=O)NCCCC[C@H](NC(=O)[C@H](Cc1c[nH]c2ccccc12)NC(=O)[C@H](Cc1c[nH]cn1)NC(=O)[C@@H]1CCC(=O)N1)C(=O)N[C@@H](Cc1c[nH]cn1)C(=O)N[C@H](CCC(=O)O)C(=O)N[C@@H](Cc1c[nH]c2ccccc12)C(=O)N[C@@H](CCCCNC(=O)CON=C(C)[C@]1(O)Cc2c(O)c3c(c(O)c2[C@@H](O[C@H]2C[C@H](N)[C@H](O)[C@H](C)O2)C1)C(=O)c1c(OC)cccc1C3=O)C(=O)N1CCC[C@H]1C(=O)NCC(N)=O [compound 5, [4Lys(Bu), 6D-Glu, 8Lys(Dau=Aoa)]] ([pGlu]HWK(Butyryl)H[dE]WK(Daunorubicin(13-NOCH2CO))PG-NH2)	–	–	7 ± 1.2	13.7 ± 2.6
